Assay results reported in US20210368850A1, “VAPORIZABLE FORMULATION” (NICOVENTURES TRADING LIMITED, priority 2018, published 2021).

Tests used:
[1] = Thermogravimetric analysis (TGA) of mass loss on heating; format: physicochemical; details: 30° C. to 600° C. at 5° C./min; for Tpeak of mass loss (° C.) Air (rep 1) / Tpeak of mass loss (° C.) Air (rep 2): TGA in air; for Tpeak of mass loss (° C.) Nitrogen (rep 1) / Tpeak of mass loss (° C.) Nitrogen (rep 2): TGA in nitrogen
Protocol: Prior to panel testing, the cooling agents were subjected to thermogravimetric analysis (TGA) to understand their behavior as they are heated. As is known in the art, TGA is an analytical method which can monitor the mass loss of a sample as it is heated to temperatures of up to 1000° C. and higher.
All measurements were carried out on a Perkin Elmer STA6000 TGA thermogravimetric analyzer. For solid samples, a spatula was used to transfer 5-20 mg of material into the crucible of the analyzer. Oils were introduced to the instrument by transferring 5-20 mg using a Pasteur pipette onto a small portion of Cambridge filter pad which was placed in the crucible. All samples were heated from 30° C. to 600° C. at a constant rate of 5° C./min. This was carried out for each compound twice in air and twice in nitrogen. For a small number of samples, the run was stopped at 500-600° C. when full mass loss had been observed. For comparative purposes, menthol was also analyzed.
The onset temperature of mass loss for each compound was determined by visual inspection of the TGA traces on the computer software and the results are summarized in Table 2.

[2] = from the literature, cited from earlier work; for Boiling point (° C.) @ 760 mmHg unless stated: @ 760 mmHg (atmospheric pressure), approximate
volunteers [3] = experiment: Example 1 observational testing: perceived cooling intensity, Vype eTank Pro e-cigarette; format: in vivo; details: 10 volunteers
Protocol: 10 volunteers were asked to use each cooling agent sample in a Vype eTank Pro (an electronic cigarette device). All cooling agents were used at a concentration of 0.18% except for menthol which in one sample was used at the current commercial concentration of 1.235%. Each of the menthol samples were tested for comparative purposes.
(§1) Each volunteer was asked to assess the cooling intensity on an objective basis (i.e. not considering personal preference) and a subjective basis. The objective assessment required the volunteer to rate the overall perceived cooling intensity from 0 to 10, where 0 was no cooling perceivable and 10 was very strong cooling sensation, and to place the cooling sensation, e.g. in the mouth, throat etc. The subjective assessment required the cooling intensity to be ranked as (1) much too low, (2) slightly too low, (3) just right, (4) slightly too high or (5) much too high.

[4] = cited from earlier work; for Vapor pressure (mmHg) @ 25° C.: approximate, from the literature
volunteers [5] = experiment: Example 2: cooling intensity of WS-3 e-liquid samples, eTank Pro e-cigarette; format: in vivo; details: minimum of 4 volunteers, scale 0-10
Excerpt: A minimum of 4 volunteers were asked to test each of the following e-liquid samples in an eTank Pro (an electronic cigarette device): • WS-3 at 2.5 wt % in glycerol/propylene glycol; • WS-3 at 5 wt % in glycerol/propylene glycol; and • WS-3 at 10 wt % in glycerol/propylene glycol.
as §1, with “basis in the same manner as Example 1.” for “basis.”

[6] = 0.18% in e-liquid, 0 = no cooling perceivable, 10 = very strong cooling sensation

Tpeak of mass loss (° C.) Air (rep 1) [1] [°C] | Tpeak of mass loss (° C.) Air (rep 2) [1] [°C] | Tpeak of mass loss (° C.) Nitrogen (rep 1) [1] [°C] | Tpeak of mass loss (° C.) Nitrogen (rep 2) [1] [°C] | SMILES | Boiling point (° C.) @ 760 mmHg unless stated [2] | Average Cooling Intensity (0-10) (volunteers [3]; [6]) | Vapor pressure (mmHg) @ 25° C. [4] [mmHg] | Boiling point (° C.) ([2]; @ 2.00 mmHg) | Average Cooling Intensity (0-10) (volunteers [3]; 1.235% (current commercial concentration) in e-liquid, scale 0-10) | Vapor pressure ([4]; 25° C.) | Average Cooling Intensity (0-10) (volunteers [5]; 2.5 wt % in glycerol/propylene glycol) | Average Cooling Intensity (0-10) (volunteers [5]; 5 wt % in glycerol/propylene glycol) | Average Cooling Intensity (0-10) (volunteers [5]; 10 wt % in glycerol/propylene glycol)
149 | 151 | 154 | 158 | CCOC(=O)CNC(=O)[C@@H]1C[C@H](C)CC[C@H]1C(C)C [WS-5, ethyl-2-[[(1R,2S,5R)-5-methyl-2-propan-2-ylcyclohexanecarbonyl]amino] acetate] |  | 2.5454 |  | 151.00 (@ 2.00 mmHg) ° C. |  |  |  |  | 
88 | 88 | 90 | 86 | CNC(=O)C(C)(C(C)C)C(C)C [WS-23, N,2,3-trimethyl-2-propan-2-ylbutanamide] | 233.00-234.00 °C | 2.1818 |  |  |  |  |  |  | 
202 | 203 | 199 | 197 | COc1ccc(NC(=O)[C@@H]2C[C@H](C)CC[C@H]2C(C)C)cc1 [WS-12] | 447.8 ± 28.0 °C |  | 3.25E−8 |  |  |  |  |  | 
127 | 132 | 132 | 128 | CCNC(=O)[C@H]1C[C@@H](C)CC[C@@H]1C(C)C (stereo in doubt) [WS-3, (1S,2R,5S)-N-ethyl-5-methyl-2-(propan-2-yl)cyclohexanecarboxamide] | 340.55 °C | 3.045 | 8.50E−5 |  |  |  | 6 | 8.5 | 9.8

Further lines, the molecule ahead of its results:

SMILES | Tpeak of mass loss (° C.) Air (rep 1) [1] [°C] | Tpeak of mass loss (° C.) Air (rep 2) [1] [°C] | Tpeak of mass loss (° C.) Nitrogen (rep 1) [1] [°C] | Tpeak of mass loss (° C.) Nitrogen (rep 2) [1] [°C] | Boiling point (° C.) @ 760 mmHg unless stated [2] | Average Cooling Intensity (0-10) (volunteers [3]; [6]) | Vapor pressure (mmHg) @ 25° C. [4] [mmHg] | Boiling point (° C.) ([2]; @ 2.00 mmHg) | Average Cooling Intensity (0-10) (volunteers [3]; 1.235% (current commercial concentration) in e-liquid, scale 0-10) | Vapor pressure ([4]; 25° C.) | Average Cooling Intensity (0-10) (volunteers [5]; 2.5 wt % in glycerol/propylene glycol) | Average Cooling Intensity (0-10) (volunteers [5]; 5 wt % in glycerol/propylene glycol) | Average Cooling Intensity (0-10) (volunteers [5]; 10 wt % in glycerol/propylene glycol)
CC(C)[C@@H]1CC[C@@H](C)CC12OCC(CO)O2 (single isomer, unassigned; (-)) [Frescolat ® MGA, (−)-menthone 1,2-glycerol ketal] | 93 | 85 | 102 | 94 | 138-142 °C | 1 | 2.15E−5 |  |  |  |  |  | 
CC(C)[C@@H]1CC[C@@H](C)C[C@H]1OC(=O)CCC(=O)O [Monomenthyl succinate, (−)-menthyl succinate] | 144 | 148 | 151 | 151 | 374.35 °C |  | 1.23E−6 |  |  |  |  |  | 
CC(C)[C@@H]1CC[C@@H](C)C[C@H]1OCC(O)CO (stereo partly drawn) [Coolact ® 10, 3-((−)-menthoxy)propane-1,2-diol] | 119 | 112 | 115 | 119 | 362.8 ± 22.0 °C | 0.75 | 9.88E−7 |  |  |  |  |  | 
CC(C)[C@@H]1CC[C@@H](C)C[C@H]1C(=O)NCCc1ccccn1 [Evercool ® 190, (1R,2S,5R)-N-(2-(pyridin-2-yl)ethyl)menthylcarboxamide] | 161 | 164 | 169 | 174 | 461.6 ± 24.0 °C | 7.1 | 1.06E−8 |  |  |  |  |  | 
CC(O)C(=O)O[C@@H]1C[C@H](C)CC[C@H]1C(C)C (stereo partly drawn) [Frescolat ® ML, (−)-menthyl lactate] | 86 | 88 | 86 | 91 | 304.0 ± 15.0 °C | 2 | 8.58E−5 |  |  |  |  |  | 
CC1CCC(C(C)C)C(O)C1 (stereo not shown) [Menthol, menthol, reference compound] | 53 | 55 | 52 | 55 | 212 °C | 2.1 |  |  | 8 | approximately 1.02 Pa |  |  | 
